These results are taken from ChEMBL document CHEMBL1136276, “Alpha-fluoro-substituted thalidomide analogues” (Bioorg Med Chem Lett, 2003).

Test [1] can be described thus: Inhibition of TNF-alpha production in LPS stimulated human PBMC at 360 uM. It is filed as functional.
Test [2] in a line: Inhibition of TNF-alpha production in LPS stimulated human PBMC. The test is classed as functional.

What is called inhibition is the drop in the measured response relative to a control, in per cent. Lower therefore signals a weak effect. As to `O=C1CCC(F)(N2C(=O)c3ccccc3C2=O)C(=O)N1` (stereo not drawn), in test [1], the inhibition at 360 µM came out at 80%.
In general, IC50 refers to the concentration at which inhibition is half-maximal. A lower IC50 goes with inhibition by little substance. Regarding `Nc1cccc2c1C(=O)N(C1CCC(=O)NC1=O)C2=O` (stereo not drawn) [POMALIDOMIDE], in test [2], the IC50 was found to be 230 nM.
`Nc1cccc2c1C(=O)N(C1(F)CCC(=O)NC1=O)C2=O` (stereo not drawn) displayed an IC50 in test [2] of 230 nM.
